# System: HEK293T cells
# Assay: Metabolic conversion and uptake of 2-hydroxylated fatty acids in HEK293T cell cultures
# Assay type: in vitro ADME, human
# Description: To describe the metabolic conversion of DHA-H to HPA(C21:5 ω-3), as well as the conversion of LA-H to HDA (C17:2 ω-6), ALA-H to HTA ω-3 (C17:3 ω-3), GLA-H to HTA ω-6 (C17:3 ω-6), ARA-H to NTA (C19:4 ω-6), EPA-H to NPA (C19:5 ω-3), HEK293T (Human Embryonic Kidney Cells 293T) cell cultures were employed, which is an embryonic, non-tumoral cell line, widely used in human metabolism studies under physiological conditions.
# HEK293T cells were cultured in Dulbecco's Modified Eagle's Medium (DMEM; Dubelcco's Modified Eagle's Medium, Biowest, France), supplemented with 10% FBS (Fetal Bovine Serum; Gibco, Thermo-Fisher), 2 mM L-Gln, 25 mM D(+)-glucose, 1 mM sodium pyruvate, and penicillin/streptomycin. Mouse neuroblastoma N2a cells were maintained in a 1:1 (v:v) mixture of DMEM and Opti-Mem (Gibco, Thermo-Fisher), supplemented with 5% FBS and penicillin/streptomycin. Both cell lines were incubated in an atmosphere of 5% CO2 at 37° C.
# HEK293T cells were incubated with DHA-H and DHA at 10, 30 and 100 μM for 24 hours, and at 30 μM for 6, 48 and 72 hours. These cells were also incubated with LA-H, ALA-H, GLA-H, ARA-H and EPA-H at 100 μM for 24 hours. HEK293T cells were also incubated with oxythiamine in the presence of DHA-H under the same conditions, at final oxythiamine concentrations of 1 and 10 mM. The HEK293T cells were separated from the plates by pipettes with cold phosphate buffer saline solution (PBS). Cells were recovered by centrifugation (1000 xg, 10 min at 4° C.) and washed twice with cold PBS before being frozen at −80° C. To analyze DHA-H and DHA levels in the cell culture medium, 90 mm diameter plates were filled with 11 mL of complete cell culture medium containing 30 μM DHA-H or DHA in the presence or absence of attached HEK293T cells (5.10^5 cells/plate). The plates were incubated as described above and 1 ml aliquots of the plates were collected at 0, 6, 24, 48 and 72 hours. Aliquots of the cell culture medium were immediately centrifuged at 1000×g for 10 min at 4° C. to remove any cell suspension and the cell-free aliquots were stored at -20° C.
# The cell lysates were subjected to ultrasound pulses (4 cycles, 10 s/cycle, 10 W) before lipid extraction. For brain analysis, the tissue of each animal was homogenized in cold PBS at 1:10 (p:v) in the presence of protease inhibitors (Roche), using a blade homogenizer (Polytron PT3100). Homogenates were ultrasounded, aliquots were made and stored at −80 ° C. Only one aliquot of each sample, containing about 8 mg protein/aliquot, was subjected to lipid extraction. Protein content before lipid extraction was determined by a modified Lowry method (Bio-rad DC Protein Assay).
# Margaric acid (C17:0) was added to the samples subjected to lipid extraction as an internal standard and the lipids were extracted with chloroform:methanol (Eggers and Schwudke, 2016). Briefly, 0.75 volumes of the aqueous phase (which already contained the biological sample) were mixed with 2 volumes of chloroform and 1 volume of methanol. This mixture was vortexed for 1 minute and centrifuged at 1000×g for 10 minutes. The lower organic phase was collected and washed with 1 ml of PBS:methanol (1:1,v:v), and the resulting organic phase was dried under argon flow. The film containing the extracted lipids was transmethylated by incubation of the lipid mixture for 90 minutes at 100° C. in 3 ml of methanol:acetyl chloride (10:1, v:v), under an argon atmosphere (Christie, 1993). The resulting fatty acid methyl esters (FAMEs) were extracted with hexane, adding 3 ml of H2O and 1 ml of hexane to the transmethylation reaction, and vortexing the mixture thoroughly. After centrifugation at room temperature (1000×g for 10 min), the upper phase containing the FAMEs was collected and the remaining volume was washed twice with 1 ml of hexane.
Structure (SMILES),"Levels in the culture medium in the absence of cell culture (30 μM, up to 72 h, no cells)","Intracellular HPA levels compared to DHA-H levels (HEK293T under DHA-H, from 24 hours of incubation and 30 μM)","Formation of the metabolite from its 2-hydroxylated prodrug in the presence of oxythiamine (HEK293T, prodrug 100 μM, 24 h, 10 mM oxythiamine)"
"CCC=CCC=CCC=CCC=CCC=CCC=CCC(O)C(=O)O (stereo not drawn) [DHA-H, 2-hydroxy-drocosahexaenoic acid]",remained constant over time,–,–
"CC/C=C\C/C=C\C/C=C\C/C=C\C/C=C\CCCCC(=O)O [HPA, (6Z,9Z,12Z,15Z,18Z)-heneicosa-6,9,12,15,18-pentaenoic acid]",–,significantly higher than those of the prodrug,inhibited

# From patent US20230097753A1, “ALPHA-HYDROXYLATED FATTY-ACID METABOLITES, MEDICAL USES AND USE AS BIOMARKERS” (UNIVERSITAT DE LES ILLES BALEARS, priority 2020, published 2023)
